In ChEMBL document CHEMBL1201862, “PubChem BioAssay data set” (2004):
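Protocol summary: plate cells (96-well), add compound at 5 concentrations, incubate 48 h, interpolate endpoints linearly. GI50 is the concentration that inhibits growth by half.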 Activity calls are given as the source filed them. No stated cut-off is given here; in the data, active = GI50 up to about 1.1 µM and inactive = higher.

How the values were obtained:
Test in all cases: NCI-60 cell line screen, 48 h
786-0 = tested on: 786-0
A498 = tested on: A498
A549 = tested on: A549
ACHN = tested on: ACHN
DMS-273 = tested on: DMS-273
IGROV-1 = tested on: IGROV-1
KM12 = tested on: KM12
NCI-H226 = tested on: NCI-H226
NCI-H23 = tested on: NCI-H23
NCI-H522 = tested on: NCI-H522
OVCAR-3 = tested on: OVCAR-3
OVCAR-8 = tested on: OVCAR-8
SF-539 = tested on: SF-539
SK-MEL-5 = tested on: SK-MEL-5
U-251 = tested on: U-251
UACC-62 = tested on: UACC-62
UO-31 = tested on: UO-31
RXF 393 = tested on: RXF 393

Compound | GI50 (786-0) | GI50 (A498) | GI50 (A549) | GI50 (ACHN) | GI50 (DMS-273) | GI50 (IGROV-1) | GI50 (KM12) | GI50 (NCI-H226) | GI50 (NCI-H23) | GI50 (NCI-H522) | GI50 (OVCAR-3) | GI50 (OVCAR-8) | GI50 (SF-539) | GI50 (SK-MEL-5) | GI50 (U-251) | GI50 (UACC-62) | GI50 (UO-31) | GI50 (RXF 393)
COc1cccc(C2CC23C(=O)NC(=O)NC3=O)c1 (stereo not given) | > 100 µM (inactive) | > 100 µM (inactive) | > 100 µM (inactive) | > 100 µM (inactive) | > 100 µM (inactive) | > 100 µM (inactive) | > 100 µM (inactive) | > 100 µM (inactive) | > 100 µM (inactive) | > 100 µM (inactive) | > 100 µM (inactive) | > 100 µM (inactive) | > 100 µM (inactive) | > 100 µM (inactive) | > 100 µM (inactive) | > 100 µM (inactive) | > 100 µM (inactive) | 
Cc1nc(Nc2ccc(Cl)cc2)sc1C(=O)Nc1cccc2c(=O)[nH][nH]c(=O)c12 | 19 µM (inactive) | 22.8 µM (inactive) | 33.1 µM (inactive) | 20.9 µM (inactive) | 7.24 µM (inactive) | 25.2 µM (inactive) | 51.8 µM (inactive) | 83.6 µM (inactive) | 16.4 µM (inactive) | 23.5 µM (inactive) | 18.9 µM (inactive) | > 100 µM (inactive) | 36.7 µM (inactive) | 2.52 µM (inactive) | 34.3 µM (inactive) | 0.439 µM (active) | 31.8 µM (inactive) | 28.6 µM (inactive)
COc1ccc(NC(=O)/C(=N/O)C(C)=O)cc1 | 45.1 µM (inactive) | > 100 µM (inactive) | > 100 µM (inactive) | > 100 µM (inactive) | > 100 µM (inactive) | > 100 µM (inactive) | > 100 µM (inactive) | > 100 µM (inactive) | > 100 µM (inactive) |  |  | > 100 µM (inactive) | > 100 µM (inactive) | > 100 µM (inactive) | > 100 µM (inactive) | > 100 µM (inactive) | > 100 µM (inactive) | > 100 µM (inactive)
N#C/N=C(/N)NCN/C(N)=N\C#N | 23.1 µM (inactive) | > 100 µM (inactive) | > 100 µM (inactive) | > 100 µM (inactive) | 58.9 µM (inactive) | > 100 µM (inactive) | > 100 µM (inactive) | > 100 µM (inactive) | > 100 µM (inactive) | > 100 µM (inactive) | > 100 µM (inactive) | > 100 µM (inactive) | > 100 µM (inactive) | > 100 µM (inactive) | > 100 µM (inactive) | > 100 µM (inactive) | > 100 µM (inactive) | 73.3 µM (inactive)
O=C(O)CCCCCO | > 100 µM (inactive) | > 100 µM (inactive) | > 100 µM (inactive) | > 100 µM (inactive) | > 100 µM (inactive) | > 100 µM (inactive) | > 100 µM (inactive) | > 100 µM (inactive) | > 100 µM (inactive) | > 100 µM (inactive) | > 100 µM (inactive) | > 100 µM (inactive) | > 100 µM (inactive) | > 100 µM (inactive) | > 100 µM (inactive) | > 100 µM (inactive) | > 100 µM (inactive) | > 100 µM (inactive)
CC1(C)Oc2ccccc2[N+]([O-])=C1c1ccccc1 | > 100 µM (inactive) | > 100 µM (inactive) | > 100 µM (inactive) | > 100 µM (inactive) | > 100 µM (inactive) | > 100 µM (inactive) |  |  | > 100 µM (inactive) | > 100 µM (inactive) | > 100 µM (inactive) | > 100 µM (inactive) | > 100 µM (inactive) | > 100 µM (inactive) | > 100 µM (inactive) | > 100 µM (inactive) | > 100 µM (inactive) | > 100 µM (inactive)
CCOC(=O)C1=C(OC(OCC)C([Se]c2ccccc2)C(C)C)CCC1 (stereo not given) | 6.82 µM (inactive) | 26.5 µM (inactive) | 28.8 µM (inactive) | 23.4 µM (inactive) | 5.52 µM (inactive) | 18.3 µM (inactive) | 41.1 µM (inactive) | 13.7 µM (inactive) | 8.28 µM (inactive) | 7.1 µM (inactive) | 15.1 µM (inactive) | 14.1 µM (inactive) | 12.3 µM (inactive) | 13 µM (inactive) | 4.29 µM (inactive) | 14.2 µM (inactive) | 24.4 µM (inactive) | 9.46 µM (inactive)
O=S(=O)(C/C(=N\O)c1ccccc1)c1ccccc1 | > 100 µM (inactive) | > 100 µM (inactive) | > 100 µM (inactive) | > 100 µM (inactive) | > 100 µM (inactive) | > 100 µM (inactive) | > 100 µM (inactive) | > 100 µM (inactive) | > 100 µM (inactive) | 57.9 µM (inactive) | > 100 µM (inactive) | > 100 µM (inactive) | > 100 µM (inactive) | > 100 µM (inactive) | > 100 µM (inactive) | > 100 µM (inactive) | > 100 µM (inactive) | > 100 µM (inactive)
Nc1ncn([C@@H]2C=C(CO)C(O)C2O)c(=O)n1 (stereo not given in full) | 55.5 µM (inactive) | > 100 µM (inactive) | 66.5 µM (inactive) | 51.4 µM (inactive) | > 100 µM (inactive) | 70.1 µM (inactive) | 85.3 µM (inactive) | 95.1 µM (inactive) | > 100 µM (inactive) | > 100 µM (inactive) | > 100 µM (inactive) | 79.3 µM (inactive) | > 100 µM (inactive) | > 100 µM (inactive) | > 100 µM (inactive) | 83.9 µM (inactive) | 50.7 µM (inactive) | 
CCC1CN2CCc3cc(OC)c(OC)cc3C2CC1CC1c2cc(OC)c(OC)cc2CCN1C(=O)CNC(=O)OC(C)(C)C (stereo not given) | 4.08 µM (inactive) | 32.3 µM (inactive) | 4.57 µM (inactive) | 21.5 µM (inactive) | 12 µM (inactive) | 19.5 µM (inactive) | 3.31 µM (inactive) | 18.3 µM (inactive) | 21.4 µM (inactive) |  | 11.9 µM (inactive) | 5.64 µM (inactive) |  | 6 µM (inactive) | 5.51 µM (inactive) | 19.7 µM (inactive) | 24.4 µM (inactive) | 17.5 µM (inactive)
CC(C)c1ccccc1NC(=O)C(=O)Cc1nc2ccccc2s1 | > 100 µM (inactive) | > 100 µM (inactive) | > 100 µM (inactive) | > 100 µM (inactive) | > 100 µM (inactive) | > 100 µM (inactive) | > 100 µM (inactive) | > 100 µM (inactive) | > 100 µM (inactive) | > 100 µM (inactive) | > 100 µM (inactive) | > 100 µM (inactive) | > 100 µM (inactive) | > 100 µM (inactive) | > 100 µM (inactive) | > 100 µM (inactive) | > 100 µM (inactive) | > 100 µM (inactive)
c1ccc2c(c1)cc1n2CC2CN=NC12 (stereo not given) | > 100 µM (inactive) | > 100 µM (inactive) | > 100 µM (inactive) | > 100 µM (inactive) | > 100 µM (inactive) | > 100 µM (inactive) | > 100 µM (inactive) | > 100 µM (inactive) |  | > 100 µM (inactive) | > 100 µM (inactive) | > 100 µM (inactive) | > 100 µM (inactive) | > 100 µM (inactive) | > 100 µM (inactive) | > 100 µM (inactive) | > 100 µM (inactive) | > 100 µM (inactive)
O=C1OC(=O)c2c1c(-c1ccccc1)nc1ccccc21 | > 100 µM (inactive) | > 100 µM (inactive) | > 100 µM (inactive) |  | > 100 µM (inactive) | > 100 µM (inactive) | > 100 µM (inactive) | > 100 µM (inactive) | > 100 µM (inactive) | > 100 µM (inactive) | > 100 µM (inactive) | > 100 µM (inactive) | > 100 µM (inactive) | > 100 µM (inactive) | > 100 µM (inactive) | > 100 µM (inactive) | > 100 µM (inactive) | > 100 µM (inactive)
COC(=O)c1sc(=NC(=S)N2CCCCC2)sc1C(=O)OC | > 100 µM (inactive) | > 100 µM (inactive) |  | > 100 µM (inactive) | 18.2 µM (inactive) | > 100 µM (inactive) | 91.4 µM (inactive) | > 100 µM (inactive) |  | 0.569 µM (active) | 3.01 µM (inactive) | > 100 µM (inactive) | > 100 µM (inactive) | 80.9 µM (inactive) | 32.4 µM (inactive) | > 100 µM (inactive) | 98.4 µM (inactive) | > 100 µM (inactive)
C=C(CCCCC)CN1CCCC1C(C)=O (stereo not given) | 35.5 µM (inactive) | 35 µM (inactive) | 32.9 µM (inactive) | 25.5 µM (inactive) | 21.5 µM (inactive) | 33.2 µM (inactive) | 33 µM (inactive) | 22 µM (inactive) | 17.4 µM (inactive) | 11.4 µM (inactive) | 27.9 µM (inactive) | 28.6 µM (inactive) | 35.6 µM (inactive) | 17.9 µM (inactive) | 30.6 µM (inactive) | 25.4 µM (inactive) | 31.4 µM (inactive) | 34.1 µM (inactive)
COC(=O)/C(C#N)=C1\CCC(OC)N1 (stereo not given) | > 100 µM (inactive) |  | > 100 µM (inactive) | > 100 µM (inactive) | > 100 µM (inactive) | > 100 µM (inactive) | > 100 µM (inactive) | > 100 µM (inactive) | > 100 µM (inactive) | > 100 µM (inactive) | > 100 µM (inactive) | > 100 µM (inactive) | > 100 µM (inactive) | > 100 µM (inactive) | > 100 µM (inactive) | > 100 µM (inactive) | > 100 µM (inactive) | 47.2 µM (inactive)
